In ChEMBL document CHEMBL1201862, “PubChem BioAssay data set” (2004):
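In this assay, cells in 96-well plates receive the compound at five concentrations for 48 hours. Endpoints are linearly interpolated between the surrounding concentrations. GI50 = concentration required for 50% inhibition of growth.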 Activity calls are given as the source filed them. Cut-off read from the data, not from the text of the source: active = GI50 up to about 1.1 µM and inactive = higher.

What was measured:
Assay in all cases: NCI-60 cell line screen, 48 h
CAKI-1 = system: CAKI-1
CCRF-CEM = system: CCRF-CEM
EKVX = system: EKVX
HCT-116 = system: HCT-116
HCT-15 = system: HCT-15
HOP-62 = system: HOP-62
HT-29 = system: HT-29
KM12 = system: KM12
MCF7 = system: MCF7
NCI-H460 = system: NCI-H460
NCI/ADR-RES = system: NCI/ADR-RES
SF-539 = system: SF-539
SK-OV-3 = system: SK-OV-3
SW-620 = system: SW-620
T47D = system: T47D
U-251 = system: U-251
UACC-257 = system: UACC-257
UACC-62 = system: UACC-62
RXF 393 = system: RXF 393

SMILES | GI50 (CAKI-1) | GI50 (CCRF-CEM) | GI50 (EKVX) | GI50 (HCT-116) | GI50 (HCT-15) [µM] | GI50 (HOP-62) | GI50 (HT-29) | GI50 (KM12) | GI50 (MCF7) | GI50 (NCI-H460) | GI50 (NCI/ADR-RES) | GI50 (SF-539) | GI50 (SK-OV-3) | GI50 (SW-620) | GI50 (T47D) | GI50 (U-251) | GI50 (UACC-257) | GI50 (UACC-62) | GI50 (RXF 393)
CCN(CC)P1(=S)Oc2ccc3ccccc3c2-c2c(ccc3ccccc23)O1 | > 100 µM (inactive) | > 100 µM (inactive) | > 100 µM (inactive) | 83 µM (inactive) | 63.4 | > 100 µM (inactive) | 18.5 µM (inactive) | 5 µM (inactive) | > 100 µM (inactive) | > 100 µM (inactive) | > 100 µM (inactive) | > 100 µM (inactive) | > 100 µM (inactive) | > 100 µM (inactive) | 22.5 µM (inactive) | > 100 µM (inactive) | > 100 µM (inactive) | > 100 µM (inactive) | 
COc1cc(S(=O)(=O)Nc2ccc(-c3csc(/N=C\c4cccs4)n3)cc2)ccc1Cl | > 100 µM (inactive) | 19.8 µM (inactive) | 28.1 µM (inactive) | 37.4 µM (inactive) | > 100 | 67 µM (inactive) | 57.1 µM (inactive) |  | 16.5 µM (inactive) | 53 µM (inactive) | > 100 µM (inactive) | 39.7 µM (inactive) | > 100 µM (inactive) | 34.3 µM (inactive) | 19.2 µM (inactive) |  | 51.8 µM (inactive) | 23.3 µM (inactive) | 
CC(C)CC(NP(=O)(O)OC1OC(C)C(O)C(O)C1O)C(=O)NC(Cc1c[nH]c2ccccc12)C(=O)O (stereo not drawn) | > 100 µM (inactive) | > 100 µM (inactive) | > 100 µM (inactive) | > 100 µM (inactive) | > 100 | > 100 µM (inactive) | > 100 µM (inactive) | > 100 µM (inactive) | > 100 µM (inactive) | > 100 µM (inactive) | > 100 µM (inactive) | > 100 µM (inactive) | > 100 µM (inactive) | > 100 µM (inactive) | > 100 µM (inactive) | > 100 µM (inactive) | > 100 µM (inactive) | > 100 µM (inactive) | 
FC1(F)SC2CCCCCCCCCCC2C1(F)F (stereo not drawn) | 59.6 µM (inactive) | 19.2 µM (inactive) | 35.5 µM (inactive) | 18.4 µM (inactive) | 42.5 | 38.6 µM (inactive) | 29.7 µM (inactive) |  | 20.2 µM (inactive) |  | 63.4 µM (inactive) |  | 61.7 µM (inactive) |  | 30.9 µM (inactive) | 28.5 µM (inactive) | 20.5 µM (inactive) | 33.9 µM (inactive) | 20.7 µM (inactive)
[O-][N+]1=C(c2ccccc2)/C(=C2/C(c3ccccc3)=[N+]([O-])c3ccccc32)Cc2ccccc21 | 22 µM (inactive) | 13.1 µM (inactive) | 20.4 µM (inactive) | 17.1 µM (inactive) | 16.9 | 32.4 µM (inactive) | 19.4 µM (inactive) | 18.7 µM (inactive) | 43.4 µM (inactive) |  | 15.7 µM (inactive) | 24.2 µM (inactive) | 26.4 µM (inactive) | 22.4 µM (inactive) | 16.3 µM (inactive) | 14.5 µM (inactive) | 18.3 µM (inactive) | 14.1 µM (inactive) | 33.1 µM (inactive)
C/C=N\n1c(C)n[nH]c1=O | > 100 µM (inactive) | > 100 µM (inactive) | > 100 µM (inactive) | > 100 µM (inactive) | > 100 | > 100 µM (inactive) | > 100 µM (inactive) | > 100 µM (inactive) | > 100 µM (inactive) | > 100 µM (inactive) | > 100 µM (inactive) | > 100 µM (inactive) |  | > 100 µM (inactive) | > 100 µM (inactive) | > 100 µM (inactive) | > 100 µM (inactive) | > 100 µM (inactive) | > 100 µM (inactive)
N#Cc1c(-c2ccccc2)c(/C=N/c2cccc(C(F)(F)F)c2)c(=O)n2c1[nH]c1ccccc12 | 2.07 µM (inactive) | 40.4 µM (inactive) | 19.1 µM (inactive) | 29.6 µM (inactive) | 33 | 30.5 µM (inactive) |  | 19.4 µM (inactive) | 35.6 µM (inactive) | 14.5 µM (inactive) | 25.1 µM (inactive) | 16.7 µM (inactive) | 26.9 µM (inactive) | 30.2 µM (inactive) | 35.2 µM (inactive) | 45 µM (inactive) | 32.5 µM (inactive) |  | 32.8 µM (inactive)
COc1ccc(-c2oc3c(OC)c(OC)c(OC)c(OC)c3c(=O)c2OC)cc1OC [3,5,6,7,8,3',4'-HEPTAMETHOXYFLAVONE] | 53.8 µM (inactive) | 25.6 µM (inactive) | 55.7 µM (inactive) | 47.4 µM (inactive) | 35.9 | 14.5 µM (inactive) | 26.5 µM (inactive) | 47.5 µM (inactive) | 21.3 µM (inactive) | 19.8 µM (inactive) | 20.3 µM (inactive) | 65.8 µM (inactive) | > 100 µM (inactive) | 32.8 µM (inactive) | 22.4 µM (inactive) | 51.5 µM (inactive) | 53.1 µM (inactive) | 48.3 µM (inactive) | 
